Assays:
Histone deacetylase 8 = biological target: T1, Histone deacetylase 8 (Homo sapiens, UniProt Q9BY41); experiment: (§1) IC50 Assay: IC50 measurements were conducted by BPS Biosciences (Table 1) or by Nanosyn (Table 1A) with an established fluorescence assay.
T1 sequence (Q9BY41 whole entry): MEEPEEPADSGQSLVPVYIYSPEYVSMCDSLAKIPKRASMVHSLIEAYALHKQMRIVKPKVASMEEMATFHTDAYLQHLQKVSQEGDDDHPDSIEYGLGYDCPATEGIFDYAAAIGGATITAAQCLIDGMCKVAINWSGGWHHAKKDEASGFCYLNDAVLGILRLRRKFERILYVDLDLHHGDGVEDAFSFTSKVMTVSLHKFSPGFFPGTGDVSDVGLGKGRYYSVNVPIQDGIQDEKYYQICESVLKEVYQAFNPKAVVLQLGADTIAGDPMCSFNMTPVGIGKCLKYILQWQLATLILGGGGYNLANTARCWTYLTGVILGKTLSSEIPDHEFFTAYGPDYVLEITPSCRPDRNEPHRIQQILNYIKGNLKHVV

Histone deacetylase 11 = biological target: T2, Histone deacetylase 11 (Homo sapiens, UniProt Q96DB2); experiment: as §1
T2 sequence (Q96DB2 whole entry): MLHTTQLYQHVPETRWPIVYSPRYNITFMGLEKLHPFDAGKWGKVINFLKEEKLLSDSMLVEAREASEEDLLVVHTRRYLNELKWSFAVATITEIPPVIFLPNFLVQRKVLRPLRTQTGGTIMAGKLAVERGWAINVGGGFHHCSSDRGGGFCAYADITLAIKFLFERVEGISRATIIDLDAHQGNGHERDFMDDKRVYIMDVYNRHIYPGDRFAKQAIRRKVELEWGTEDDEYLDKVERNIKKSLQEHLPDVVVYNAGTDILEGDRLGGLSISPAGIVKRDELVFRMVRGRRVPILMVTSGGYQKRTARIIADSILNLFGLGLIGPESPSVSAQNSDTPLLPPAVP

Histone deacetylase 9 = Histone deacetylase 9 (Homo sapiens, UniProt Q9UKV0); experiment: as §1
Histone deacetylase 9, sequence (Q9UKV0 whole entry): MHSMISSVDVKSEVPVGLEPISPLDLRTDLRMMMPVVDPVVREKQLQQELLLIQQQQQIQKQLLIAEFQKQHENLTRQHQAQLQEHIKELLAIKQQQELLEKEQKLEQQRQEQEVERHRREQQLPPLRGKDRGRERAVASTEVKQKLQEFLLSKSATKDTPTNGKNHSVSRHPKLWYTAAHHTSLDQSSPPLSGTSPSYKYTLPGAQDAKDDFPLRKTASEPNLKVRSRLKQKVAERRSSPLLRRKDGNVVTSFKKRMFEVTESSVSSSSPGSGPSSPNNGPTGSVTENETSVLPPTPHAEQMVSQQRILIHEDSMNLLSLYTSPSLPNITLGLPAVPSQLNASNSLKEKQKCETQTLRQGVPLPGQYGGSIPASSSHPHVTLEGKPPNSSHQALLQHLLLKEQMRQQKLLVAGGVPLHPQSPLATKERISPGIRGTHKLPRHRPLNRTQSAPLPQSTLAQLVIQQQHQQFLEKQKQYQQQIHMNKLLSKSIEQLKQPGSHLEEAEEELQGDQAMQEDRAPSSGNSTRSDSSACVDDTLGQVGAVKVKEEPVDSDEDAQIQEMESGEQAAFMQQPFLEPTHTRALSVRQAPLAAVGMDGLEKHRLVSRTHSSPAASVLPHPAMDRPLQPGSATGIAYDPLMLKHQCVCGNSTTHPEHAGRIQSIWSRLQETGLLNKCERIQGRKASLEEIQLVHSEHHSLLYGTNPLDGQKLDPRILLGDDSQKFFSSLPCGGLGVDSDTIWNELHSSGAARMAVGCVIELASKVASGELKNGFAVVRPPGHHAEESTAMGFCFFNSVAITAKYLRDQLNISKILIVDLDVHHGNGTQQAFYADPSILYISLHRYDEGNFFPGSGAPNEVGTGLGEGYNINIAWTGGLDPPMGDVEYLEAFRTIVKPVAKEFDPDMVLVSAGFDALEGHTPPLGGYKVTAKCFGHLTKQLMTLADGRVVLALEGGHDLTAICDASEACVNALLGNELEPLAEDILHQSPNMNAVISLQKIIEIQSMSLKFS

Histone deacetylase 3 = Histone deacetylase 3 (Homo sapiens, UniProt O15379); experiment: as §1
Histone deacetylase 3, sequence (O15379 whole entry): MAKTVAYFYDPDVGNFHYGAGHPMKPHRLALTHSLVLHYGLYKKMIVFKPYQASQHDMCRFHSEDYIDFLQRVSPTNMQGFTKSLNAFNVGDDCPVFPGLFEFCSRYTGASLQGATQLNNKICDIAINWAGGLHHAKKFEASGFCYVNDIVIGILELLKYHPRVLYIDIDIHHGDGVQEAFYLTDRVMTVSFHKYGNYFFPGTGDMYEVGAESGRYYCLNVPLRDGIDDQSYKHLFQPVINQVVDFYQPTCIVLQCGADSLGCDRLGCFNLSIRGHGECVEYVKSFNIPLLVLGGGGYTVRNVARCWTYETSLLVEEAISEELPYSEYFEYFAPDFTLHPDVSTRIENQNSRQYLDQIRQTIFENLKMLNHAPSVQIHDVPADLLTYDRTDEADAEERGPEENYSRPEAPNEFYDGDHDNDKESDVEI

[1] = biological target: T3, Polyamine deacetylase HDAC10 (Homo sapiens, UniProt Q969S8); experiment: as §1
T3 sequence (Q969S8 whole entry): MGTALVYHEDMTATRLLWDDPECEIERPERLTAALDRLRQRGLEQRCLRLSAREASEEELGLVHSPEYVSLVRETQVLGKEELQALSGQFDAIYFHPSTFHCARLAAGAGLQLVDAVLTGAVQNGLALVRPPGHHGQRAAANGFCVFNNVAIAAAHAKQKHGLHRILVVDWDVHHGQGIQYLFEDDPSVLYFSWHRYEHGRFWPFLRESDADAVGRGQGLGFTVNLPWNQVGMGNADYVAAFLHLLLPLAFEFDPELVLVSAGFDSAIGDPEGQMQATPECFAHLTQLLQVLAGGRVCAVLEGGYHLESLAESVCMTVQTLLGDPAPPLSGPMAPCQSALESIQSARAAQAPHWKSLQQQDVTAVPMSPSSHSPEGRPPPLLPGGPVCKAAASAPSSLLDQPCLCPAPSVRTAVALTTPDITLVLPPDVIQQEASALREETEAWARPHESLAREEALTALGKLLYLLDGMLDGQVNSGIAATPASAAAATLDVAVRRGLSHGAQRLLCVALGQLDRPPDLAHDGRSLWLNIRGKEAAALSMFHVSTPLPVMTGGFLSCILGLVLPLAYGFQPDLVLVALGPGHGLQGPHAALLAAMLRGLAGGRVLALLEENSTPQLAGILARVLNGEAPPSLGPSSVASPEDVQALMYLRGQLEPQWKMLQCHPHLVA

Histone deacetylase 4 = Histone deacetylase 4 (Homo sapiens, UniProt P56524); experiment: as §1
Histone deacetylase 4, sequence (P56524 whole entry): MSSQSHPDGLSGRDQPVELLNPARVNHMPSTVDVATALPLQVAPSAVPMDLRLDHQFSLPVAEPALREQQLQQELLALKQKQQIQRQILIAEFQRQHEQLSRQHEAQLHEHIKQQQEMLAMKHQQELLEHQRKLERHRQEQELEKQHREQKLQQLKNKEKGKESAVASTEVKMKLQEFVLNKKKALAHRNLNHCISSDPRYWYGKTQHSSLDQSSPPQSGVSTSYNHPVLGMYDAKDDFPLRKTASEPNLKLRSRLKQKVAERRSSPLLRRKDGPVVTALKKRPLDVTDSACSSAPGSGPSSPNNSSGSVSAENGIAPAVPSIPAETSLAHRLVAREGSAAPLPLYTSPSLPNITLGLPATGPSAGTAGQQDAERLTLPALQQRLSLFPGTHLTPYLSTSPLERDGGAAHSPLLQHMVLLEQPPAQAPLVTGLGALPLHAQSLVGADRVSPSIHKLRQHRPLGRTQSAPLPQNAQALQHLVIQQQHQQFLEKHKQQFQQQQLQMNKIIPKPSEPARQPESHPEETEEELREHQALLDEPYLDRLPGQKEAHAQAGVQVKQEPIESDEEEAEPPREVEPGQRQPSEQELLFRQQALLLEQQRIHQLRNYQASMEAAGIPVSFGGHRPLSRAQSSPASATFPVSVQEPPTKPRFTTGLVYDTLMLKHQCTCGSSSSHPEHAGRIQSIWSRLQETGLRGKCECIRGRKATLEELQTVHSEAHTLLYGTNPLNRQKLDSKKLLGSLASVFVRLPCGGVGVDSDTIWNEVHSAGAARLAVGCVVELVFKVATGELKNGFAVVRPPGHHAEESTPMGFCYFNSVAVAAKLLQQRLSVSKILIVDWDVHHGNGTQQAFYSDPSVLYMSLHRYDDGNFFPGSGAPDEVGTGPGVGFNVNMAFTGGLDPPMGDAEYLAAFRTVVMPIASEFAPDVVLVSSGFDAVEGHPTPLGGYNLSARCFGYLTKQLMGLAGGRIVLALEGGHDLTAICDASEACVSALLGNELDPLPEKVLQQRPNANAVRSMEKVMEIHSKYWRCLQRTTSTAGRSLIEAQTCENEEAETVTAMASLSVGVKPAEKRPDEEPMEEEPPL

Histone deacetylase 7 = biological target: T4, Histone deacetylase 7 (Homo sapiens, UniProt Q8WUI4); experiment: as §1
T4 sequence (Q8WUI4 whole entry): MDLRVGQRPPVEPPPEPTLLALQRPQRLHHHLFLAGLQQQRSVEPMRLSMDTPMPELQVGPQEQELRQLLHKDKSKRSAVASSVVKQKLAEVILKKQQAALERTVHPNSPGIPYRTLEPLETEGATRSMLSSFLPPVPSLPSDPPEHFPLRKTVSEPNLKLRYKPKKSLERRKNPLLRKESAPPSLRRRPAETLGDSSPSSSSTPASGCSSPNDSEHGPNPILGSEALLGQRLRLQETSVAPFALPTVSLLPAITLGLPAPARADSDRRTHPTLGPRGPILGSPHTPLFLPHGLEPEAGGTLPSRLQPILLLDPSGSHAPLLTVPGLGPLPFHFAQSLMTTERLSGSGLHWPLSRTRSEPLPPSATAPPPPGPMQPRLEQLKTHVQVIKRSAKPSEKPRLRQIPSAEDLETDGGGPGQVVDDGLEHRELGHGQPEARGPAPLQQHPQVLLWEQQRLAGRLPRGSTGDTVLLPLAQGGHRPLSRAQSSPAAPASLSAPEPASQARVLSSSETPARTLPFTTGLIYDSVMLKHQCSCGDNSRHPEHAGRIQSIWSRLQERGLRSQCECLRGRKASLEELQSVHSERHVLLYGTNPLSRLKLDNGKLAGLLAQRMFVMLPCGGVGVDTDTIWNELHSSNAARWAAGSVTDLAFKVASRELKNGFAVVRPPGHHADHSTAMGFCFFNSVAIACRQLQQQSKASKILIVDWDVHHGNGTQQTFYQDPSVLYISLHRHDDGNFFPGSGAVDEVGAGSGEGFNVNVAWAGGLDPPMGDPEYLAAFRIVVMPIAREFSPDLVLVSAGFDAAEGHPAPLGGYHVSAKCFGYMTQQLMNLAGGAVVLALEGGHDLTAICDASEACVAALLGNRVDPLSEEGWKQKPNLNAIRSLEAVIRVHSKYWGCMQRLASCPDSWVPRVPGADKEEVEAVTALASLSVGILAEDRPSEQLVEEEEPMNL

Histone deacetylase 5 = Histone deacetylase 5 (Homo sapiens, UniProt Q9UQL6); experiment: as §1
Histone deacetylase 5, sequence (Q9UQL6 whole entry): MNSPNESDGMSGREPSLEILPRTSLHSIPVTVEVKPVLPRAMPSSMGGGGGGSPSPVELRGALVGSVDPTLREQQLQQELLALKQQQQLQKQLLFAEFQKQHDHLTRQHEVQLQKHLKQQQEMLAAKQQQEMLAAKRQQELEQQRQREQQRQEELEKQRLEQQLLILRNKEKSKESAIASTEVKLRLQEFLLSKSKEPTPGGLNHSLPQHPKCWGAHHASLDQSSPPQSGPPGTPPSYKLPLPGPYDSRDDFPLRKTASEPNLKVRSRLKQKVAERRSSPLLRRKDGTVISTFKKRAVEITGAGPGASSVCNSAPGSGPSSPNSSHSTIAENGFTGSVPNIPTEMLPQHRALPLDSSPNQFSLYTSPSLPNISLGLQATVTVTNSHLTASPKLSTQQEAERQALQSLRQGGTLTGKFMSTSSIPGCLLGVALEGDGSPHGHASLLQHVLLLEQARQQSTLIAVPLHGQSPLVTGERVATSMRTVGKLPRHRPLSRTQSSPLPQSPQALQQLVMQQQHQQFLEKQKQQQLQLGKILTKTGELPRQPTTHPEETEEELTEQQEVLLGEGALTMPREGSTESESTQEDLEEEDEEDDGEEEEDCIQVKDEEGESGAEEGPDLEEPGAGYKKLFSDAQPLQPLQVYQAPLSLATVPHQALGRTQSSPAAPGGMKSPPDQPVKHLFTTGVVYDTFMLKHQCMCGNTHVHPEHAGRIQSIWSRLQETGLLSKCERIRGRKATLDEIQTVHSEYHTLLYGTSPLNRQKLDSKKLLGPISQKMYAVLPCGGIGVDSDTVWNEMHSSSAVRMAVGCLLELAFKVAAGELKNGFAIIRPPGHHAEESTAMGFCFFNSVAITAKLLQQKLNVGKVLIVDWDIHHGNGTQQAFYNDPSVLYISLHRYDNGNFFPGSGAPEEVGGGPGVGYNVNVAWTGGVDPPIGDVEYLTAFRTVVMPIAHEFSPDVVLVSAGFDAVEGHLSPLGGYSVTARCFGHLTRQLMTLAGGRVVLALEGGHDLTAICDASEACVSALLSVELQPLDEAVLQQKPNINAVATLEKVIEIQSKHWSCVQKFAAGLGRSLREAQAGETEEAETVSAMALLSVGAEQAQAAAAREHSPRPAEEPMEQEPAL

[2] = biological target: T5, Protein deacetylase HDAC6 (Homo sapiens, UniProt Q9UBN7); experiment: as §1
T5 sequence (Q9UBN7 whole entry): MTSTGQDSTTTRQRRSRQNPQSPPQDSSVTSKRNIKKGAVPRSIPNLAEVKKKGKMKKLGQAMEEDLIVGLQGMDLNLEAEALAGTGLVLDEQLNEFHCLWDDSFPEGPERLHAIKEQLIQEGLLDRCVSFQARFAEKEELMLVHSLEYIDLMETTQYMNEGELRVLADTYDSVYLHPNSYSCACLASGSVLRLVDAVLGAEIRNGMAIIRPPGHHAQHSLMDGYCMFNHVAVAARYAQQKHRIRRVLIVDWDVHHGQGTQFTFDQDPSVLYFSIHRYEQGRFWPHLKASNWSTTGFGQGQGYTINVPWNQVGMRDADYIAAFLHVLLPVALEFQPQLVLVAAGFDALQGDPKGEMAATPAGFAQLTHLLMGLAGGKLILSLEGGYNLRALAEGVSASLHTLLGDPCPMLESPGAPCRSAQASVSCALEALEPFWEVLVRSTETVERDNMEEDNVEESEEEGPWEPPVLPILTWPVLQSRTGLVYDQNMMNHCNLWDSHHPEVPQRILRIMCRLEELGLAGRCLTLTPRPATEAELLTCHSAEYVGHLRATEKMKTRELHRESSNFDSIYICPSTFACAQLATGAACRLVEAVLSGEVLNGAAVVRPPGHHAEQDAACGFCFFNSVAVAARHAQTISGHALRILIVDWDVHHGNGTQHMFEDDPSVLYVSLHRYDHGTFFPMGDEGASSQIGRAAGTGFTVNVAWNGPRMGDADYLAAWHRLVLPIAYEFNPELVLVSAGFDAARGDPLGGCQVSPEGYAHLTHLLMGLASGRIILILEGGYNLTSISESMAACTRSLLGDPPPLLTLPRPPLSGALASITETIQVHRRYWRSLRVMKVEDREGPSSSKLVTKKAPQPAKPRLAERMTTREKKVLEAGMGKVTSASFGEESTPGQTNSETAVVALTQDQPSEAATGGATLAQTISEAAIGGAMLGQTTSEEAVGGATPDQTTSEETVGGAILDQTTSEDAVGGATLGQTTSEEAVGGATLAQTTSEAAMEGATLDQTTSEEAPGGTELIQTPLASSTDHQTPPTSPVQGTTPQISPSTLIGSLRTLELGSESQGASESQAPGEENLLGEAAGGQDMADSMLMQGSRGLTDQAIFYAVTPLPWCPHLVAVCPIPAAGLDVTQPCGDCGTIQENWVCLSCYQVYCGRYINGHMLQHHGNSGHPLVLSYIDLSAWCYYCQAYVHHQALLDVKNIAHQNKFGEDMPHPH

Histone deacetylase 1 = Histone deacetylase 1 (Homo sapiens, UniProt Q13547); experiment: as §1
Histone deacetylase 1, sequence (Q13547 whole entry): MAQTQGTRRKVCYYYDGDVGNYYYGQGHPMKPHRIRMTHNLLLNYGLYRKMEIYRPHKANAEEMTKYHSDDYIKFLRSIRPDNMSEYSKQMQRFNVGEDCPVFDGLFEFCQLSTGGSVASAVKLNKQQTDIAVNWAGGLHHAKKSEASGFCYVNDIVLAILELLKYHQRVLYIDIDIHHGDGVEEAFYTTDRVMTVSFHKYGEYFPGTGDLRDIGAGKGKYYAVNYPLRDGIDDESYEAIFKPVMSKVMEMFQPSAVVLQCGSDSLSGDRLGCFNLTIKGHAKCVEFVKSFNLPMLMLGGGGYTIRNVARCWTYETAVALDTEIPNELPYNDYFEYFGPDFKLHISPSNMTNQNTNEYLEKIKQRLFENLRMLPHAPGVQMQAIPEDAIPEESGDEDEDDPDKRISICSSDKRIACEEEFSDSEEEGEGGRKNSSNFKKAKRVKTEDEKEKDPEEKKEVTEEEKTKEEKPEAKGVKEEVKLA

| Compound | IC50 (Histone deacetylase 8) | IC50 (Histone deacetylase 11) | IC50 (Histone deacetylase 9) | IC50 (Histone deacetylase 3) | IC50 [1] | IC50 (Histone deacetylase 4) | IC50 (Histone deacetylase 7) | IC50 (Histone deacetylase 5) | IC50 [2] | IC50 (Histone deacetylase 1) |
| --- | --- | --- | --- | --- | --- | --- | --- | --- | --- | --- |
| CN(Cc1ccc(/C=C/C(=O)NO)cc1F)CC12CC3CC(CC(C3)C1)C2 | > 1 µM | > 1 µM | > 1 µM | 0.023 µM | 0.033 µM | > 1 µM | > 1 µM | > 1 µM | 0.18 µM | 0.017 µM |
| O=C(CCCCCCNC(=O)c1cnc(N(c2ccccc2)c2ccccc2)nc1)NO [RICOLINOSTAT] |  |  |  |  | > 1 µM |  |  |  |  |  |
| CC(=O)Nc1ccc(C(=O)Nc2ccccc2N)cc1 [TACEDINALINE] |  | 2.83 µM |  |  |  |  |  |  |  |  |

From ChEMBL document CHEMBL5728890, “HDAC6 inhibitors and imaging agents” (2021)
